Laboratory results taken from the NIST ThermoML archive (doi:10.1016/j.jct.2016.06.031).
Numbers after ± are expanded uncertainties.

Columns and labels:
[1] = Liquid; for mass density: 101.33 kPa, Vibrating tube method; for vapor or sublimation pressure: Closed cell (Static) method
[2] = refractive index (Na D-line) (dimensionless); details: 101.33 kPa, Liquid, Standard Abbe refractometry

mass density ([1]; 293.15 K)	mass density ([1]; 295.15 K)	mass density ([1]; 297.15 K)	mass density ([1]; 298.15 K)	mass density ([1]; 300.4 K)	refractive index ([2]; 293.15 K)	refractive index ([2]; 298.15 K)	SMILES	vapor or sublimation pressure ([1]; 273.06 K)	vapor or sublimation pressure ([1]; 278.07 K)	vapor or sublimation pressure ([1]; 283.07 K)	vapor or sublimation pressure ([1]; 288.07 K)	vapor or sublimation pressure ([1]; 292.07 K)
683.8 ± 0.9 kg/m3	681.6 ± 0.9 kg/m3	679.9 ± 0.9 kg/m3	679.1 ± 0.9 kg/m3	677.1 ± 0.9 kg/m3	1.3878 ± 0.0007	1.3852 ± 0.0007	CCCCCCC [heptane]					
							FC(F)(F)C(F)(F)F [hexafluoroethane]	1839 ± 6 kPa	2100 ± 6 kPa	2388 ± 7 kPa	2701 ± 7 kPa	2972 ± 8 kPa
